Assay results taken from publication PMC5826112, “Intrapulmonary Pharmacokinetics of Relebactam, a Novel β-Lactamase Inhibitor, Dosed in Combination with Imipenem-Cilastatin in Healthy Subjects” (Antimicrobial Agents and Chemotherapy, 2018).
Like-named read-outs stand apart in the source and are kept apart here.

Tests used:
[1] = Safety and tolerability in healthy subjects; assay type: in vivo, human (healthy subjects); conditions: with imipenem-cilastatin
Description: The safety and tolerability of relebactam were monitored by clinical assessment of adverse events, measurement of vital signs, and performance of a physical examination, 12-lead electrocardiogram (ECG), and standard laboratory safety tests (hematology, chemistry, and urinalysis). Renal function (established by determination of serum/urine creatinine, serum urea, urine protein, and urine albumin concentrations) and hepatic function (established by determination of serum bilirubin, alanine aminotransferase, and aspartate aminotransferase concentrations) were carefully monitored during the study. The safety of bronchoscopy and BAL was monitored by clinical assessment, including continuous cardiac monitoring and repeated measurements of vital signs, according to the standard operating procedures at the study site. All data were analyzed according to the treatment actually received. Safety and tolerability were assessed in the all-subjects-as-treated (AST) population, defined as all subjects who received at least one dose of study drug.

[2] = no reference given; cited from earlier work
[3] = parameters: method as in earlier work; conditions: relebactam doses of 125 mg or higher; exceeds single-dose target; cited from earlier work
[4] = parameters: method as in data on file; conditions: mice; ref data on file; cited from earlier work
[5] = Relebactam population PK model (two-compartment plasma model with time-invariant ELF partition coefficient); assay type: in vivo, human (healthy subjects)
Protocol: Population PK analysis was conducted using NONMEM (version 7.3) software (ICON plc., Dublin, Ireland). The first-order conditional estimation with interaction (FOCEI) method was applied for parameter estimation. […] To elucidate the relationship between plasma and ELF concentrations, penetration into the ELF was explored using three approaches, each using a naive pooled data approach: (i) a three-compartment model with bidirectional mass transfer between the ELF compartment and the central volume, (ii) a time-invariant partition coefficient driven by the predicted unbound plasma concentration, and (iii) an effect compartment with an input rate constant driven by the concentration difference between the volume in the central compartment and the effect compartment.
The equations comprising the partition coefficient model are as follows: (1) dA1/dt=Q2/V2A2−Q2/V1A1−CL/V1A1 (2) dA2/dt=Q2/V1A1−Q2/V2A2 (3) CELF=kELF·fu,REL·A1/V1 where A1 is the amount of drug in the central compartment, A2 is the amount of drug in the peripheral compartment, CL is the plasma clearance, Q2 is the intercompartmental clearance, V1 is the volume of distribution in the central compartment, V2 is the volume of distribution in the peripheral compartment, CELF is the relebactam concentration in the ELF, fu,ELF is the free fraction of relebactam in plasma (∼80%), kELF is the partition coefficient for distribution into the ELF space, and t is time.
The free fraction in the ELF was assumed to be 100%. Different residual error models (additive, proportional, and combined) were tested for both the plasma and ELF concentrations of relebactam. Model development, including the selection of the structural and residual error model, was based upon the success of minimization, numerical comparison of the objective function values, the precision of the parameter estimates, and the generation of standard model diagnostic plots. The PK of imipenem were not modeled, as the lung penetration data from this study were previously described using a population PK approach ([21]).

[6] = parameters: method as in earlier work; conditions: cited from earlier work

O=C(NC1CCNCC1)[C@@H]1CC[C@@H]2CN1C(=O)N2OS(=O)(=O)O [relebactam]
tolerability [1]: sufficiently well tolerated
unbound in plasma (free fraction) [2]: ~80%
exposure (AUC0–∞) [3]: > 37.5 µM·h
penetration into the murine lung, ratio of total drug levels in the lung to total drug levels in plasma [4]: approximately 34%
Kp ([5]; human, ELF / unbound plasma, intravenous, driven by predicted unbound plasma concentration, read-out: Penetration coefficient for ELF (θkELF)): 0.553
Kp ([5]; human, ELF/unbound plasma, intravenous, based on free drug levels, read-out: time-invariant partition coefficient (ELF) estimated by the model): 0.55
clearance ([5]; human, plasma, intravenous, population PK structural model, read-out: Clearance (θCL) (converted)): 153 mL/min
Vd ([5]; human, plasma, intravenous, population PK structural model, read-out: Volume of distribution in the central compartment (θVc)): 15.3 L
Intercompartmental clearance (θQ2) ([5]; population PK structural model): 2.64 L/h
Volume of distribution in the peripheral compartment (θVp) ([5]; population PK structural model): 10.6 L
single-dose target (AUC0–∞) ([6]; derived from the target of 150 μM · h after four times daily dosing): 37.5 µM·h
required exposure (AUC0–24) for efficacy ([6]; pulmonary infection model): 150 µM·h
